Measured values reported in patent publication US11034725B2, “Compositions and methods for treating cardiovascular disease” (Genentech, Inc., priority 2016, dated 2021).
Where “and” joins values, the source holds several entries; their conditions need not be identical. Equal entries are not always repeated. Where two headings read alike, the source gives them in different places. Bridge positions count the residues as written; N and C are the ends. Square brackets hold non-standard residues; d marks the D form. Peptide text beside a SMILES is read from it. * marks the point of attachment. Trp(6-F) = N[C@@H](Cc1c[nH]c2cc(F)ccc12)C(=O)O; hArg = N=C(N)NCCCC[C@H](N)C(=O)O; Pentanoyl = CCCCC(=O)*; Ahp = NCCCCCCC(=O)O; Butyryl = CCCC(=O)*

Columns and labels:
PCSK9 = PCSK9 (Homo sapiens, UniProt Q8NBP7); experiment: PCSK9/EGF(A) TR-FRET binding assay
Sequence of PCSK9 (Q8NBP7 153-692): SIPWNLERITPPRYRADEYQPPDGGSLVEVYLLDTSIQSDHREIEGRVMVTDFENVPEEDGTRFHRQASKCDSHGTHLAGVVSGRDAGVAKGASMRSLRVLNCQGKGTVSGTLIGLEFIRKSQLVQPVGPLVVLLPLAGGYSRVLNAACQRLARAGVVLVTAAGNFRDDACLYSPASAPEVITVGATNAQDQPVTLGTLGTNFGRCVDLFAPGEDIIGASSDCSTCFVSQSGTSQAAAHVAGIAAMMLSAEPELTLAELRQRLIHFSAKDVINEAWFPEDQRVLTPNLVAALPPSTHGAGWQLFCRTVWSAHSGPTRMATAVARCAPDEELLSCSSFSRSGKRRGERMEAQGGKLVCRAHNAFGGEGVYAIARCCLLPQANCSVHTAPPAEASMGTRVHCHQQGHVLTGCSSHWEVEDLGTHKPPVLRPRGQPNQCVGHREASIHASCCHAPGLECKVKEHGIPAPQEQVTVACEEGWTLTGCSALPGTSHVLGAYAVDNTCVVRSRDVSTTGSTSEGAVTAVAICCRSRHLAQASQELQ
Sequence of PCSK9 (Q8NBP7 31-152 partner limits assumed): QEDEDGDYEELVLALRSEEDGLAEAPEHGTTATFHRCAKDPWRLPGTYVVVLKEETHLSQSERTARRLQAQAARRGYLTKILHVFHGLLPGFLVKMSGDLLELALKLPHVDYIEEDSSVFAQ

PCSK9Δhelix = molecular target: T1, PCSK9Δhelix (Homo sapiens, UniProt Q8NBP7); experiment: PCSK9Δhelix/Ab20 TR-FRET binding assay
T1 construct: Human PCSK9 construct M1-Q692 with an engineered TEV site (residue deletion Y166, R167); made in house; host or cells: CHO
T1 sequence (Q8NBP7 with tags, fused parts or gaps limits assumed): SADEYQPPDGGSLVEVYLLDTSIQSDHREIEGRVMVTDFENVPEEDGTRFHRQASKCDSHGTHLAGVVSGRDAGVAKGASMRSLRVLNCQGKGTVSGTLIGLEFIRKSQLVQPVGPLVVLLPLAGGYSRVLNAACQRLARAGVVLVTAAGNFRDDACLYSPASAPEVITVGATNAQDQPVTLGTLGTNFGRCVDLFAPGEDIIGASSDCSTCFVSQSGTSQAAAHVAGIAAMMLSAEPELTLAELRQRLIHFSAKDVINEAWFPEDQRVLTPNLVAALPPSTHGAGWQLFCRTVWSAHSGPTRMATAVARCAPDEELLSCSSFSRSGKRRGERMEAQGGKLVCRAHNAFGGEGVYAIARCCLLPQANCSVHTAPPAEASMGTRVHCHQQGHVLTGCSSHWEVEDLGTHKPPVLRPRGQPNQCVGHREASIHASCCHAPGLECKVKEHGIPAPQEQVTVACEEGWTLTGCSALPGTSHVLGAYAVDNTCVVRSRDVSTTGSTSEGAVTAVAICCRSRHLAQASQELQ
T1 sequence (Q8NBP7 31-152 partner limits assumed): as the sequence (Q8NBP7 31-152 partner limits assumed) above

His-EGF(A)-Fc = His-EGF(A)-Fc TR-FRET counterscreen
Method: The former was based on a TF-FRET assay to measure the association of the EGF(A) domain of the LDLR to PCSK9 (“PCSK9/EGF(A) binding assay”) whilst the latter was based on a TR-FRET assay to measure binding of Ab20 to PCSK9Δhelix (“PCSK9Δhelix/Ab20 binding assay”).
The ability of compounds to inhibit binding to PCSK9 was evaluated with a panel of time-resolved fluorescence resonance energy transfer (TR-FRET) binding assays. […] The PCSK9Δhelix/Ab20 binding assay evaluated the ability of compounds to compete with Ab20 for binding to the N-terminal groove region in a His-tagged, PCSK9Δhelix construct. […] Signal generation in the PCSK9 binding assays was dependent upon the binding interaction to bring into close proximity the His-tag on the PCSK9 and the Fc-tag on the ligand. Anti-His-APC was bound to the His-tag, and anti-Fc-europium was bound to the Fc-tag. When these two antibodies were in close proximity and were irradiated with light at 340 nm, the europium was excited and emitted energy at 615 nm. This energy was taken up by the APC and was emitted as light at 665 nm. Compounds that competed with the ligand reduced the energy transfer and thus the emission at 665 nm. In the His-EGFA-Fc molecule in the counterscreen, the two tags were always in close proximity, thus any reduction in emission at 665 nm was due to interference with the detection system.
Compounds were solubilized and dilutions were prepared in DMSO. […] The plate was centrifuged to mix the well contents and allowed to incubate for 30 min. […] The TR-FRET signal was read on a ViewLux reader (PerkinElmer) with excitation at 340 nm and emission at 615 and 665 nm with a 50-μs time delay between excitation and measurement of emission. The TR-FRET ratio was calculated as the fluorescence emission at 665 nm divided by the fluorescence emission at 615 nm. The normalized TR-FRET ratios were plotted as a function of the compound concentrations, and the IC50 values were determined using a 4-parameter logistic regression.
In black 1536-well assay plates (MaKO, Aurora® Microplates, Whitefish, Mont.), 40 nL of peptide in DMSO were preincubated with 2 μL His-tagged PCSK9 plus anti-His-allophycocyanin in assay buffer (50 mM Tris-HCl, pH 7.5, 150 mM NaCl, 2 mM CaCl2, 0.01% Tween®-20, 0.1% bovine gamma globulins, and protease inhibitor cocktail) for 30 min. Then 2 μL of Fc-tagged ligand and anti-Fc-europium in assay buffer were added and allowed to incubate for 2 h.

[1] = TR-FRET, Table 8E, additional compounds, read-out: PCSK9/EGF(A) IC50
[2] = TR-FRET, Table 8E, additional compounds, read-out: PCSK9Δhelix/Ab20 IC50
[3] = TR-FRET counterscreen, Table 8E, additional compounds
[4] = TR-FRET, Table 8D, disulfide-cyclized extension peptides, read-out: PCSK9/EGF(A) IC50
[5] = TR-FRET, Example 7, read-out: PCSK9Δhelix/Ab20 IC50
[6] = TR-FRET, Table 8D, disulfide-cyclized extension peptides, read-out: PCSK9Δhelix/Ab20 IC50
[7] = TR-FRET counterscreen, Table 8D, * = some inhibition at highest concentrations, not sufficient to fit an IC50
[8] = TR-FRET, Example 7, read-out: PCSK9/EGF(A) IC50

Compound | IC50 (PCSK9; [4]) [µM] | IC50 (PCSK9Δhelix; [5]) [µM] | IC50 (PCSK9Δhelix; [6]) [µM] | IC50 (His-EGF(A)-Fc; [7]) [µM] | IC50 (His-EGF(A)-Fc; counterscreen, Example 7) [µM] | also measured
Ac-SGDLMPWNLVRIGLLR-NH2 [Compound 122] |  |  |  |  |  | IC50 (PCSK9; [1]): ≥ 50 µM; IC50 (PCSK9Δhelix; [2]): 5.6 µM; IC50 (His-EGF(A)-Fc; [3]): ≥ 50 µM
CC[C@H](C)[C@@H]1NC(=O)[C@H](CCCNC(=N)N)NC(=O)[C@H](CCCCN)NC(=O)[C@H](CC(C)C)NC(=O)[C@H](CC(N)=O)NC(=O)[C@H](Cc2c[nH]c3ccccc23)NC(=O)[C@@H]2CCCN2C(=O)[C@H](CC(C)C)NC(=O)[C@H](CCCNC(=N)N)NC(=O)[C@@H](NC(C)=O)CSSC[C@@H](C(N)=O)NC(=O)[C@@H]2CCCN2C(=O)[C@H](CC(C)C)NC(=O)CNC1=O [Compound 67] (Ac-CRLPWNLKRIGLPC-NH2; disulfide 1-14) | > 50 | 0.7 | 0.699 | > 50 |  | 
CC[C@H](C)[C@@H]1NC(=O)[C@H](CCCNC(=N)N)NC(=O)[C@H](CCC(N)=O)NC(=O)[C@H](C)NC(=O)[C@H](CC(N)=O)NC(=O)[C@H](Cc2c[nH]c3ccccc23)NC(=O)[C@@H]2CCCN2C(=O)[C@H](CC(C)C)NC(=O)[C@H](CCCNC(=N)N)NC(=O)[C@@H](NC(C)=O)CSSC[C@@H](C(N)=O)NC(=O)[C@@H]2CCCN2C(=O)[C@H](CC(C)C)NC(=O)CNC1=O [Compound 74] (Ac-CRLPWNAQRIGLPC-NH2; disulfide 1-14) | > 50 |  | 49.5 | > 50 |  | 
CC[C@H](C)[C@@H]1NC(=O)[C@H](CCCNC(=N)N)NC(=O)[C@H](CCC(N)=O)NC(=O)[C@H](CC(C)C)NC(=O)[C@H](CC(N)=O)NC(=O)[C@H](Cc2c[nH]c3ccccc23)NC(=O)[C@@H]2CCCN2C(=O)[C@H](CC(C)C)NC(=O)[C@H](CCCNC(=N)N)NC(=O)[C@@H](NC(C)=O)CSSC[C@@H](C(N)=O)NC(=O)[C@@H]2CCCN2C(=O)[C@H](C)NC(=O)CNC1=O [Compound 69] (Ac-CRLPWNLQRIGAPC-NH2; disulfide 1-14) | > 50 |  | 6.64 | > 50 |  | 
CC[C@H](C)[C@@H]1NC(=O)[C@H](CCCNC(=N)N)NC(=O)[C@H](CCC(N)=O)NC(=O)[C@H](CC(C)C)NC(=O)[C@H](CC(N)=O)NC(=O)[C@H](Cc2c[nH]c3ccccc23)NC(=O)[C@H]2CCCN2C(=O)[C@H](CC(C)C)NC(=O)[C@H](CCCNC(=N)N)NC(=O)[C@@H](NC(C)=O)CSSC[C@@H](C(N)=O)NC(=O)[C@@H]2CCCN2C(=O)[C@H](CC(C)C)NC(=O)CNC1=O [Compound 107] (Ac-CRL[dP]WNLQRIGLPC-NH2; disulfide 1-14) | > 50 |  | > 50 | > 50 |  | 
CC[C@H](C)[C@@H]1NC(=O)[C@H](CCCNC(=N)N)NC(=O)[C@H](CCCCN)NC(=O)[C@H](CC(C)C)NC(=O)[C@H](CC(N)=O)NC(=O)[C@H](Cc2c[nH]c3ccccc23)NC(=O)[C@@H](NC(=O)CNC(=O)[C@H](CO)NC(=O)CNC(C)=O)CSSC[C@@H](C(N)=O)NC(=O)CNC(=O)[C@H](CCC(N)=O)NC(=O)[C@H](CO)NC(=O)CNC1=O [Compound 22] (Ac-GSGCWNLKRIGSQGC-NH2; disulfide 4-15 (inferred)) |  |  |  | > 50 |  | IC50 (PCSK9; PCSK9/EGF(A) IC50, TR-FRET, Table 8D, disulfide-cyclized extension peptides): > 50 µM; IC50 (PCSK9Δhelix; PCSK9Δhelix/Ab20 IC50, TR-FRET, Table 8D, disulfide-cyclized extension peptides): 14 µM and > 50 µM
Ac-DLAPWNLVRIGLLR-NH2 [Compound 43] |  | 8.19 |  |  | > 50 | IC50 (PCSK9; [8]): > 50 µM
CC[C@H](C)[C@H](NC(=O)[C@H](CCCCNC(=N)N)NC(=O)[C@H](CCCCN)NC(=O)[C@H](CC(C)C)NC(=O)[C@H](CC(N)=O)NC(=O)[C@H](Cc1c[nH]c2ccccc12)NC(=O)CNC(=O)[C@@H]1CCCN1C(=O)[C@H](Cc1ccccc1)NC(=O)[C@H](C)NC(=O)[C@H](Cc1ccccc1)NC(=O)[C@H](CO)NC(C)=O)C(=O)NCC(=O)N[C@@H](CC(C)C)C(=O)N[C@@H](CC(C)C)C(=O)N[C@@H](CCCNC(=N)N)C(N)=O [Compound 232] (Ac-SFAFPGWNLK[hArg]IGLLR-NH2) |  |  |  |  |  | IC50 (PCSK9; [1]): 0.93 µM; IC50 (PCSK9Δhelix; [2]): 13 µM; IC50 (His-EGF(A)-Fc; [3]): ≥ 50 µM
Ac-GLMPWNLVRIGLLR-NH2 [Compound 124] |  |  |  |  |  | IC50 (PCSK9; [1]): ≥ 50 µM; IC50 (PCSK9Δhelix; [2]): 3.9 µM; IC50 (His-EGF(A)-Fc; [3]): ≥ 50 µM
CCCCC(=O)N[C@@H](Cc1c[nH]c2ccccc12)C(=O)N[C@@H](CC(N)=O)C(=O)N[C@@H](CC(C)C)C(=O)N[C@H](C(=O)N[C@@H](CCCNC(=N)N)C(=O)N[C@H](C(=O)NCC(=O)N[C@@H](CC(C)C)C(=O)NCC(=O)N[C@@H](CCCNC(=N)N)C(N)=O)[C@@H](C)CC)C(C)C [Compound 179] (Pentanoyl-WNLVRIGLGR-NH2) |  |  |  |  |  | IC50 (PCSK9; [1]): ≥ 50 µM; IC50 (PCSK9Δhelix; [2]): 11 µM; IC50 (His-EGF(A)-Fc; [3]): ≥ 50 µM
Ac-DLMPWNLVRIALLR-NH2 [Compound 57] |  | > 49.5 |  |  | > 50 | IC50 (PCSK9; [8]): > 50 µM
Ac-DLMPWALVRIGLLR-NH2 [Compound 62] |  | > 49.5 |  |  | > 50 | IC50 (PCSK9; [8]): > 50 µM
Ac-DLMPWNLARIGLLR-NH2 [Compound 60] |  | 19.2 |  |  | > 50 | IC50 (PCSK9; [8]): > 50 µM
CC[C@H](C)[C@@H]1NC(=O)[C@@H](CCCNC(=N)N)NC(=O)[C@H](CCC(N)=O)NC(=O)[C@H](CC(C)C)NC(=O)[C@H](CC(N)=O)NC(=O)[C@H](Cc2c[nH]c3ccccc23)NC(=O)[C@@H]2CCCN2C(=O)[C@H](CC(C)C)NC(=O)[C@H](CCCNC(=N)N)NC(=O)[C@@H](NC(C)=O)CSSC[C@@H](C(N)=O)NC(=O)[C@@H]2CCCN2C(=O)[C@H](CC(C)C)NC(=O)CNC1=O [Compound 102] (Ac-CRLPWNLQ[dR]IGLPC-NH2; disulfide 1-14) | > 50 |  | > 50 | > 50 |  | 
Ac-DLMPANLVRIGLLR-NH2 [Compound 41] |  | > 49.5 |  |  | > 50 | IC50 (PCSK9; [8]): > 50 µM
Ac-TVFTSWEEYLDWVGSGKLWNLGRV-NH2 [Compound 1] |  | 0.021 |  |  | > 50 | inhibition in the PCSK9/EGF(A) binding assay (PCSK9): comparable activity to Pep2-8; inhibition in the PCSK9Δhelix/Ab20 binding assay (PCSK9Δhelix): superior activity
CC[C@H](C)[C@@H]1NC(=O)[C@H](CCCNC(=N)N)NC(=O)[C@H](CCC(N)=O)NC(=O)[C@H](CC(C)C)NC(=O)[C@H](CC(N)=O)NC(=O)[C@H](Cc2c[nH]c3ccccc23)NC(=O)[C@@H]2CCCN2C(=O)[C@H](CC(C)C)NC(=O)[C@H](CCCNC(=N)N)NC(=O)[C@@H](NC(=O)CNC(=O)[C@H](CO)NC(=O)CNC(=O)[C@@H](NC(=O)[C@H](Cc2c[nH]c3ccccc23)NC(=O)[C@H](CC(=O)O)NC(=O)[C@H](CC(C)C)NC(=O)[C@H](Cc2ccc(O)cc2)NC(=O)[C@H](CCC(=O)O)NC(=O)[C@H](CCC(=O)O)NC(=O)[C@H](Cc2c[nH]c3cc(F)ccc23)NC(=O)[C@H](CO)NC(=O)[C@@H](NC(=O)[C@H](Cc2ccccc2)NC(=O)[C@@H](NC(=O)[C@@H](NC(C)=O)[C@@H](C)O)C(C)C)[C@@H](C)O)C(C)C)CSSC[C@@H](C(N)=O)NC(=O)[C@@H]2CCCN2C(=O)[C@H](CC(C)C)NC(=O)CNC1=O [Compound 241] (Ac-TVFTS[Trp(6-F)]EEYLDWVGSGCRLPWNLQRIGLPC-NH2; disulfide 17-30 (inferred)) |  |  |  |  |  | IC50 (PCSK9; [1]): 1.6 µM; IC50 (PCSK9Δhelix; [2]): 0.1 µM; IC50 (His-EGF(A)-Fc; [3]): ≥ 50 µM
Ac-DLMPWNLVRIGL-NH2 [Compound 47] |  | 12.6 |  |  | > 50 | IC50 (PCSK9; [8]): > 50 µM
CC[C@H](C)[C@@H]1NC(=O)[C@H](CCCNC(=N)N)NC(=O)[C@H](CCC(N)=O)NC(=O)[C@H](CC(C)C)NC(=O)[C@H](CC(N)=O)NC(=O)[C@H](Cc2c[nH]c3ccccc23)NC(=O)[C@@H]2CCCN2C(=O)[C@H](CC(C)C)NC(=O)[C@H](CCCNC(=N)N)NC(=O)[C@@H](NC(C)=O)CSSC[C@@H](C(N)=O)NC(=O)CCCCCCNC1=O [Compound 121] (Ac-CRLPWNLQRI[Ahp]C-NH2; disulfide 1-12) | > 50 |  | 40.3 | > 50 |  | inhibition in the PCSK9Δhelix/Ab20 binding assay (PCSK9Δhelix): weak but detectable inhibition
CC[C@H](C)[C@@H]1NC(=O)[C@H](CCCNC(=N)N)NC(=O)[C@H](CCC(N)=O)NC(=O)[C@H](CC(C)C)NC(=O)[C@H](CC(N)=O)NC(=O)[C@H](Cc2c[nH]c3ccccc23)NC(=O)[C@@H]2CCCN2C(=O)[C@H](CC(C)C)NC(=O)[C@H](CCCNC(=N)N)NC(=O)[C@@H](NC(=O)CNC(=O)[C@H](CO)NC(C)=O)CSSC[C@@H](C(N)=O)NC(=O)[C@@H]2CCCN2C(=O)[C@H](CC(C)C)NC(=O)CNC1=O [Compound 30] (Ac-SGCRLPWNLQRIGLPC-NH2; disulfide 3-16) | > 50 |  | 0.95 | > 50 |  | 
CCCC(=O)N[C@@H](Cc1c[nH]c2ccccc12)C(=O)N[C@@H](CC(N)=O)C(=O)N[C@@H](CC(C)C)C(=O)N[C@H](C(=O)N[C@@H](CCCNC(=N)N)C(=O)N[C@H](C(=O)NCC(=O)N[C@@H](CC(C)C)C(=O)N[C@@H](CC(C)C)C(=O)N[C@@H](CCCNC(=N)N)C(N)=O)[C@@H](C)CC)C(C)C [Compound 123] (Butyryl-WNLVRIGLLR-NH2) |  |  |  |  |  | IC50 (PCSK9; [1]): ≥ 50 µM; IC50 (PCSK9Δhelix; [2]): 18 µM; IC50 (His-EGF(A)-Fc; [3]): ≥ 50 µM
CC[C@H](C)[C@@H]1NC(=O)[C@H](CCCNC(=N)N)NC(=O)[C@H](CCCCN)NC(=O)[C@H](CC(C)C)NC(=O)[C@H](CC(N)=O)NC(=O)[C@H](Cc2c[nH]c3ccccc23)NC(=O)[C@H](CC(C)C)NC(=O)[C@@H](NC(=O)CNC(C)=O)CSSC[C@@H](C(=O)N[C@@H](Cc2c[nH]c3ccccc23)C(=O)N[C@@H](Cc2ccccc2)C(N)=O)NC(=O)[C@H](CCC(N)=O)NC(=O)[C@H](CO)NC(=O)CNC1=O [Compound 87] (Ac-GCLWNLKRIGSQCWF-NH2; disulfide 2-13 (inferred)) | > 50 |  | 9.53 | > 50 |  | 
